This note sets out measurements from patent US11684606B2, “Methods of treating generalized pustular psoriasis with an antagonist of CCR6 or CXCR2” (CHEMOCENTRYX, INC., priority 2018, dated 2023).

The assay has as its target T1, mCXCR4 (Mus musculus, UniProt P70658).
T1 construct: endogenous in cells; host or cells: mouse BaF3-WT cells (from the earlier reading's assay name)
The experiment in a line: Chemotaxis of mouse BaF3-WT to mCXCL12. The format is cell-based. The following applies: in serum; unit inferred.

T1 sequence (P70658 whole entry): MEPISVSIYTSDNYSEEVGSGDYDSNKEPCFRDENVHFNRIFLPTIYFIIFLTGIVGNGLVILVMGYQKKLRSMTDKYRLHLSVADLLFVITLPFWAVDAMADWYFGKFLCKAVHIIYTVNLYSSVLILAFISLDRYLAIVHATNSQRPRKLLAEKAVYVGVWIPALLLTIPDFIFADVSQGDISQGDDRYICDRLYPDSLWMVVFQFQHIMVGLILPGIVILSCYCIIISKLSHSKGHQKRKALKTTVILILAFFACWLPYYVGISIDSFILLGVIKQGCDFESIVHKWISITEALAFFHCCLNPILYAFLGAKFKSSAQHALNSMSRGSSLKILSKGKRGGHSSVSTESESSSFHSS

As for `CCC(C)(C)[C@@H](Nc1c(Nc2c(F)ccc3c2C(=O)N[C@H]3C)c(=O)c1=O)c1ccc(C)o1` [Compound 1.136], the IC50 was over 10 µM.
